Data reported in US20020039601A1, “Cancer cell growth suppressor and cell differentiation inducer and method for manufacturing the same” (priority 2000, published 2002).

Assays:
[1] = tested on: carcinoma strain of the colon (Colo201 cells); test: CD-DST cancer cell growth suppression test, Colo201; type: cell-based, human; conditions: 67.6 μg of capsanthin (FIG. 6)
Excerpt: Employing a drug sensitivity test method (CD-DST method), Toma-pi water-soluble component condensed liquid of different concentrations was examined for growth suppressing effect at the contact time set at seven days.
The CD-DST method herein referred to is a well-known experiment method called a collagen gel drop method, and its steps are shown in FIG. 1. Its details are also described in “Establishment of Collagen Gel Droplet Embedded Culture Drug Sensitivity Test (CD-DST) and consideration about its clinical utility” in “Cancer and Chemical Treatment” (published in 1995, vol.22, 1933-1939 pages).
As a method of cultivating cancer cells, a human cancer cell first generation cultivation system kit (Plymaster made by Nitta Gelatine Co.), was used and cells were cultivated according to a normal method (reference document J. Jpn. Soc. Cancer Ther. 29(7):946-956, 1994).
The growth suppressing effect was judged in terms of suppressing percentage (T/C%) which is the ratio of a treated group to an untreated group (control group). Units μg and mg shown in FIGS. 2-7 show the concentrations of Toma-pi water-soluble components in terms of the weight of Toma-pi powder (dried powder of Capsicum Annuum L.Var.grossumn) used as raw material for water extracting. It is hereinbelow referred to as “converted concentration of Toma-pi water-soluble components”.

HL-60 cells [2] = test: Human leukemia differentiation inducing test (NBT reducing ability); type: cell-based; conditions: HL60 cells
Method: The differentiation inducing test using HL-60 cells, which are leukemia cells, was performed according to “New Cultured Cell Experiment Method” (written by Toshio Kuroki, on pages 286-289, published by Yodosha), “Jpn. J-Cancer” (Res. 81, 807-812, August 1990), and “Clinical Test Method” written by Izumi Kamei, page 358, published by Kinbara Shuppan) to examine the differentiation inducing ability with the NBT reducing ability as an index.
It is known that for HL60 cells, differentiation is induced by retinoic acid, DMSO or active type vitamin D3. Active type vitamin D3 (medicine for external use, treatment of psoriasis) and all-trans retinoic acid (ATRA) are used as oral medicine for treating leukemia. When leukemia cells differentiate, azurophile granules in the cells reduce. If they differentiate into granulocyte, cell nucleus segment. […] As a convenient marker for differentiation induction of leukemia cells, one method is to measure nitro blune tetrazolium (NBT) reducing ability.
The NBT test uses the fact that when promyelocytic leukemia cells such as HL60 differentiate into monocyte/macrophage, production of active oxygen increases. That is to say, formation of insoluble formozan produced when NBT is reduced due to oxidation/reduction reaction by the active oxygen is used as a marker of differentiation. Active vitamin D3 has a differentiating ability at 10^−9 to 10^−6 M, ATRA at 10^−8 to 10^−6 M, and DMSO at 1.2 to 1.3%. At the respective maximum concentrations, they can differentiate by about 90% or over. Judging by the NBT reducing ability, the results were examined.

HL-60 cells [3] = conditions: HL60 cells, cited from earlier work

## CC1=C(/C=C/C(C)=C/C=C/C(C)=C/C=C/C=C(C)/C=C/C=C(C)/C=C/C(=O)[C@]2(C)C[C@@H](O)CC2(C)C)C(C)(C)C[C@H](O)C1 [capsanthin]
[1]
  growth suppression: 24%
HL-60 cells [2]; capsanthin 200 μg with active type vitamin D3 (FIG. 9)
  active type vitamin D3 concentration from which differentiation was promoted in combination: ≥ 75 pM
HL-60 cells [2]; capsanthin 400 μg with active type vitamin D3 (FIG. 9)
  active type vitamin D3 concentration at which differentiation was promoted in combination: 10^−11 M

## active type vitamin D3
HL-60 cells [2]; 10^−9 M
  NBT reducing rate: about 5%
HL-60 cells [3]; 10^−10 M, alone
  differentiating ability: does not ordinarily show any differentiating ability
HL-60 cells [3]
  concentration having differentiating ability: 10^−9 to 10^−6 M

## C[S+](C)[O-] [DMSO]
HL-60 cells [3]
  concentration having differentiating ability: 1.2 to 1.3%

## CC1=C(/C=C/C(C)=C/C=C/C(C)=C/C(=O)O)C(C)(C)CCC1 [ATRA, all-trans retinoic acid]
HL-60 cells [3]
  concentration having differentiating ability: 10^−8 to 10^−6 M
